Source: PMC8453901, “GLPG1205, a GPR84 Modulator: Safety, Pharmacokinetics, and Pharmacodynamics in Healthy Subjects” (Clinical Pharmacology in Drug Development, 2021)

Legend:
CYP2B6 = test system: CYP2B6; parameters: method as in data on file at Galapagos; conditions: in vitro; ref data on file at Galapagos; cited from earlier work
[1] = Safety and tolerability, study 1 SAD part; assay type: in vivo, human
Method: Safety and tolerability were assessed on the basis of adverse events (AEs), which were monitored throughout both studies. Additional safety assessments included vital signs (including supine [and standing in study 2] heart rate, systolic and diastolic blood pressure, and oral body temperature), 12‐lead electrocardiogram (ECG), clinical laboratory tests (hematology, coagulation [study 2 only], serum/plasma chemistry, urinalysis, urine drug screen, serology, and alcohol breath test), and a comprehensive physical examination. In the SAD part of study 1, clinical laboratory tests, physical examination, and vital signs were assessed at the screening visit, at the time of dosing (0 hours after dose), 24 hours after dosing and at follow‐up (7 to 10 days after the final dose). Vital signs were additionally observed 2 hours after dosing, and the 12‐lead ECG was additionally completed at 1, 2, 6, 8, and 12 hours after dosing. In the MAD part of study 1, all additional safety assessments were performed at screening; days 1, 2, 8, 14, and 15; and at follow‐up. In study 2, additional safety assessments were performed at screening (between 21 and 2 days before the first study drug administration); days 1, 2, 5, 10, 14, 15, and 20 (clinical laboratory tests were not performed on day 20); at early discontinuation; and at follow‐up. For study 2, renal function tests (measurement of estimated creatinine clearance rate using the Cockcroft‐Gault equation) were also included in the clinical laboratory tests for safety assessment.
In both studies, the safety analysis was descriptive and focused on changes from baseline and treatment‐emergent findings.

CYP2C19 = test system: CYP2C19; parameters: method as in data on file at Galapagos, 8, 9; conditions: 100 mg once daily, healthy male subjects; ref data on file at Galapagos, 8, 9; cited from earlier work

Compound: O=c1nc(OC[C@@H]2COCCO2)cc2n1CCc1cc(C#CC3CC3)ccc1-2 [GLPG1205, 9‐cyclopropylethynyl‐2‐((S)‐1‐[1,4]dioxan‐2‐ylmethoxy)‐6,7‐dihydropyrimido[6,1‐a]isoquinolin‐4‐one]
- inhibition of CYP2B6 (CYP2B6): weak inhibition
- subjects with nausea (most frequent TEAE) ([1]; SAD part, all doses): 4 subjects
- Any TEAE ([1]; single 10 mg (n = 6)): 2 (33.3) number of subjects (%)
- Dizziness (TEAE) ([1]; single 10 mg (n = 6)): 0 number of subjects (%)
- Gastrointestinal disorders (TEAE) ([1]; single 10 mg (n = 6)): 0 number of subjects (%)
- Headache (TEAE) ([1]; single 10 mg (n = 6)): 1 (16.7) number of subjects (%)
- Hot flush (TEAE) ([1]; single 10 mg (n = 6)): 0 number of subjects (%)
- Infections and infestations (TEAE) ([1]; single 10 mg (n = 6)): 1 (16.7) number of subjects (%)
- Musculoskeletal and connective tissue disorders (TEAE) ([1]; single 10 mg (n = 6)): 0 number of subjects (%)
- Nausea (TEAE) ([1]; single 10 mg (n = 6)): 0 number of subjects (%)
- Nervous system disorders (TEAE) ([1]; single 10 mg (n = 6)): 1 (16.7) number of subjects (%)
- Oropharyngeal pain (TEAE) ([1]; single 10 mg (n = 6)): 0 number of subjects (%)
- Respiratory, thoracic, and mediastinal disorders (TEAE) ([1]; single 10 mg (n = 6)): 0 number of subjects (%)
- Somnolence (TEAE) ([1]; single 10 mg (n = 6)): 0 number of subjects (%)
- Torticollis (TEAE) ([1]; single 10 mg (n = 6)): 0 number of subjects (%)
- Urethritis chlamydial (TEAE) ([1]; single 10 mg (n = 6)): 1 (16.7) number of subjects (%)
- Vascular disorders (TEAE) ([1]; single 10 mg (n = 6)): 0 number of subjects (%)
- Any TEAE ([1]; single 30 mg (n = 6)): 1 (16.7) number of subjects (%)
- Dizziness (TEAE) ([1]; single 30 mg (n = 6)): 0 number of subjects (%)
- Gastrointestinal disorders (TEAE) ([1]; single 30 mg (n = 6)): 0 number of subjects (%)
- Headache (TEAE) ([1]; single 30 mg (n = 6)): 0 number of subjects (%)
- Hot flush (TEAE) ([1]; single 30 mg (n = 6)): 0 number of subjects (%)
- Infections and infestations (TEAE) ([1]; single 30 mg (n = 6)): 0 number of subjects (%)
- Musculoskeletal and connective tissue disorders (TEAE) ([1]; single 30 mg (n = 6)): 0 number of subjects (%)
- Nausea (TEAE) ([1]; single 30 mg (n = 6)): 0 number of subjects (%)
- Nervous system disorders (TEAE) ([1]; single 30 mg (n = 6)): 1 (16.7) number of subjects (%)
- Oropharyngeal pain (TEAE) ([1]; single 30 mg (n = 6)): 0 number of subjects (%)
- Respiratory, thoracic, and mediastinal disorders (TEAE) ([1]; single 30 mg (n = 6)): 0 number of subjects (%)
- Somnolence (TEAE) ([1]; single 30 mg (n = 6)): 1 (16.7) number of subjects (%)
- Torticollis (TEAE) ([1]; single 30 mg (n = 6)): 0 number of subjects (%)
- Urethritis chlamydial (TEAE) ([1]; single 30 mg (n = 6)): 0 number of subjects (%)
- Vascular disorders (TEAE) ([1]; single 30 mg (n = 6)): 0 number of subjects (%)
- Any TEAE ([1]; single 90 mg (n = 6)): 0 number of subjects (%)
- Dizziness (TEAE) ([1]; single 90 mg (n = 6)): 0 number of subjects (%)
- Gastrointestinal disorders (TEAE) ([1]; single 90 mg (n = 6)): 0 number of subjects (%)
- Headache (TEAE) ([1]; single 90 mg (n = 6)): 0 number of subjects (%)
- Hot flush (TEAE) ([1]; single 90 mg (n = 6)): 0 number of subjects (%)
- Infections and infestations (TEAE) ([1]; single 90 mg (n = 6)): 0 number of subjects (%)
- Musculoskeletal and connective tissue disorders (TEAE) ([1]; single 90 mg (n = 6)): 0 number of subjects (%)
- Nausea (TEAE) ([1]; single 90 mg (n = 6)): 0 number of subjects (%)
- Nervous system disorders (TEAE) ([1]; single 90 mg (n = 6)): 0 number of subjects (%)
- Oropharyngeal pain (TEAE) ([1]; single 90 mg (n = 6)): 0 number of subjects (%)
- Respiratory, thoracic, and mediastinal disorders (TEAE) ([1]; single 90 mg (n = 6)): 0 number of subjects (%)
- Somnolence (TEAE) ([1]; single 90 mg (n = 6)): 0 number of subjects (%)
- Torticollis (TEAE) ([1]; single 90 mg (n = 6)): 0 number of subjects (%)
- Urethritis chlamydial (TEAE) ([1]; single 90 mg (n = 6)): 0 number of subjects (%)
- Vascular disorders (TEAE) ([1]; single 90 mg (n = 6)): 0 number of subjects (%)
- Any TEAE ([1]; single 200 mg (n = 6)): 1 (16.7) number of subjects (%)
- Dizziness (TEAE) ([1]; single 200 mg (n = 6)): 0 number of subjects (%)
- Gastrointestinal disorders (TEAE) ([1]; single 200 mg (n = 6)): 1 (16.7) number of subjects (%)
- Headache (TEAE) ([1]; single 200 mg (n = 6)): 0 number of subjects (%)
- Hot flush (TEAE) ([1]; single 200 mg (n = 6)): 0 number of subjects (%)
- Infections and infestations (TEAE) ([1]; single 200 mg (n = 6)): 0 number of subjects (%)
- Musculoskeletal and connective tissue disorders (TEAE) ([1]; single 200 mg (n = 6)): 0 number of subjects (%)
- Nausea (TEAE) ([1]; single 200 mg (n = 6)): 1 (16.7) number of subjects (%)
- Nervous system disorders (TEAE) ([1]; single 200 mg (n = 6)): 0 number of subjects (%)
- Oropharyngeal pain (TEAE) ([1]; single 200 mg (n = 6)): 0 number of subjects (%)
- Respiratory, thoracic, and mediastinal disorders (TEAE) ([1]; single 200 mg (n = 6)): 0 number of subjects (%)
- Somnolence (TEAE) ([1]; single 200 mg (n = 6)): 0 number of subjects (%)
- Torticollis (TEAE) ([1]; single 200 mg (n = 6)): 0 number of subjects (%)
- Urethritis chlamydial (TEAE) ([1]; single 200 mg (n = 6)): 0 number of subjects (%)
- Vascular disorders (TEAE) ([1]; single 200 mg (n = 6)): 0 number of subjects (%)
- Any TEAE ([1]; single 400 mg (n = 6)): 3 (50.0) number of subjects (%)
- Dizziness (TEAE) ([1]; single 400 mg (n = 6)): 0 number of subjects (%)
- Gastrointestinal disorders (TEAE) ([1]; single 400 mg (n = 6)): 1 (16.7) number of subjects (%)
- Headache (TEAE) ([1]; single 400 mg (n = 6)): 1 (16.7) number of subjects (%)
- Hot flush (TEAE) ([1]; single 400 mg (n = 6)): 1 (16.7) number of subjects (%)
- Infections and infestations (TEAE) ([1]; single 400 mg (n = 6)): 0 number of subjects (%)
- Musculoskeletal and connective tissue disorders (TEAE) ([1]; single 400 mg (n = 6)): 1 (16.7) number of subjects (%)
- Nausea (TEAE) ([1]; single 400 mg (n = 6)): 1 (16.7) number of subjects (%)
- Nervous system disorders (TEAE) ([1]; single 400 mg (n = 6)): 1 (16.7) number of subjects (%)
- Oropharyngeal pain (TEAE) ([1]; single 400 mg (n = 6)): 0 number of subjects (%)
- Respiratory, thoracic, and mediastinal disorders (TEAE) ([1]; single 400 mg (n = 6)): 0 number of subjects (%)
- Somnolence (TEAE) ([1]; single 400 mg (n = 6)): 0 number of subjects (%)
- Torticollis (TEAE) ([1]; single 400 mg (n = 6)): 1 (16.7) number of subjects (%)
- Urethritis chlamydial (TEAE) ([1]; single 400 mg (n = 6)): 0 number of subjects (%)
- Vascular disorders (TEAE) ([1]; single 400 mg (n = 6)): 1 (16.7) number of subjects (%)
- Any TEAE ([1]; single 600 mg (n = 6)): 0 number of subjects (%)
- Dizziness (TEAE) ([1]; single 600 mg (n = 6)): 0 number of subjects (%)
- Gastrointestinal disorders (TEAE) ([1]; single 600 mg (n = 6)): 0 number of subjects (%)
- Headache (TEAE) ([1]; single 600 mg (n = 6)): 0 number of subjects (%)
- Hot flush (TEAE) ([1]; single 600 mg (n = 6)): 0 number of subjects (%)
- Infections and infestations (TEAE) ([1]; single 600 mg (n = 6)): 0 number of subjects (%)
- Musculoskeletal and connective tissue disorders (TEAE) ([1]; single 600 mg (n = 6)): 0 number of subjects (%)
- Nausea (TEAE) ([1]; single 600 mg (n = 6)): 0 number of subjects (%)
- Nervous system disorders (TEAE) ([1]; single 600 mg (n = 6)): 0 number of subjects (%)
- Oropharyngeal pain (TEAE) ([1]; single 600 mg (n = 6)): 0 number of subjects (%)
- Respiratory, thoracic, and mediastinal disorders (TEAE) ([1]; single 600 mg (n = 6)): 0 number of subjects (%)
- Somnolence (TEAE) ([1]; single 600 mg (n = 6)): 0 number of subjects (%)
- Torticollis (TEAE) ([1]; single 600 mg (n = 6)): 0 number of subjects (%)
- Urethritis chlamydial (TEAE) ([1]; single 600 mg (n = 6)): 0 number of subjects (%)
- Vascular disorders (TEAE) ([1]; single 600 mg (n = 6)): 0 number of subjects (%)
- Any TEAE ([1]; single 800 mg (n = 6)): 5 (83.3) number of subjects (%)
- Dizziness (TEAE) ([1]; single 800 mg (n = 6)): 1 (16.7) number of subjects (%)
- Gastrointestinal disorders (TEAE) ([1]; single 800 mg (n = 6)): 2 (33.3) number of subjects (%)
- Headache (TEAE) ([1]; single 800 mg (n = 6)): 1 (16.7) number of subjects (%)
- Hot flush (TEAE) ([1]; single 800 mg (n = 6)): 0 number of subjects (%)
- Infections and infestations (TEAE) ([1]; single 800 mg (n = 6)): 0 number of subjects (%)
- Musculoskeletal and connective tissue disorders (TEAE) ([1]; single 800 mg (n = 6)): 0 number of subjects (%)
- Nausea (TEAE) ([1]; single 800 mg (n = 6)): 2 (33.3) number of subjects (%)
- Nervous system disorders (TEAE) ([1]; single 800 mg (n = 6)): 3 (50.0) number of subjects (%)
- Oropharyngeal pain (TEAE) ([1]; single 800 mg (n = 6)): 2 (33.3) number of subjects (%)
- Respiratory, thoracic, and mediastinal disorders (TEAE) ([1]; single 800 mg (n = 6)): 2 (33.3) number of subjects (%)
- Somnolence (TEAE) ([1]; single 800 mg (n = 6)): 1 (16.7) number of subjects (%)
- Torticollis (TEAE) ([1]; single 800 mg (n = 6)): 0 number of subjects (%)
- Urethritis chlamydial (TEAE) ([1]; single 800 mg (n = 6)): 0 number of subjects (%)
- Vascular disorders (TEAE) ([1]; single 800 mg (n = 6)): 0 number of subjects (%)
- effect on exposure of CYP2C19 (CYP2C19): did not affect the exposure
